Measurements reported in patent US20040006070A1, “Intraspinal continuous infusion of midazolam hydrochloride for the treatment of pain” (priority 2002, published 2004).
Counter-ions that a name gives are not always drawn.

Test: Bloodwork: complete blood count, electrolytes, extended blood chemistry
Format: in vivo, sheep
Procedure: Indirect blood pressure, pulse recording, pain testing (mechanical stimulus device, cold and warm water baths see description in procedure) and weight were taken on days 1, 3, 7, 15, 22, 29, 36, and 43. Venous blood samples (15 ml drawn from the jugular vein with Vacutainer brand blood collection tubes) for complete blood count, electrolytes, and extended blood chemistry were drawn on days 1, 15, and 43 (mild procedure only light hand restraint necessary).

[1] = sheep Chicken Hawk #87, 5 mg/day, Day 1
[2] = sheep Chicken Hawk #87, 5 mg/day, Day 15
[3] = sheep Chicken Hawk #87, 5 mg/day, Day 43
[4] = sheep Elmer Fudd #437, 5 mg/day, Baseline
[5] = sheep Elmer Fudd #437, 5 mg/day, Day 1
[6] = sheep Elmer Fudd #437, 5 mg/day, Day 15
[7] = sheep Elmer Fudd #437, 5 mg/day, Day 43

Molecule `Cc1ncc2n1-c1ccc(Cl)cc1C(c1ccccc1F)=NC2` [Midazolam, midazolam hydrochloride] has a Glucose [1] of 67 mg/dL, a Hct [1] of 34.1% and a Hgb [1] of 11.7 g/dL. The “K+” value [1] was 4.5 mEq/l, the MCH [1] was 30.9 pg and the MCHC [1] was 34.3 g/dL. The MCV [1] was 30.19 fL, the “Na+” value [1] was 150 mEq/l and the Phos [1] was 6.6 mg/dL. The “Platlet Count” value [1] was 1.28e+06 µL⁻¹, the RBC [1] was 1.1e+07 µL⁻¹ and the “Total Bili” value [1] was 0.1 mg/dL. For the same molecule, the “Total Prot” value [1] was 5.7 g/dL, the WBC [1] was 6000 µL⁻¹ and the ALT [2] was 6 U/L. For the same molecule, the AST [2] was 58 U/L, the Albumin [2] was 3.8 g/dL and the “Alk Phos” value [2] was 79 U/L. The BUN [2] was 17 mg/dL, the CPK [2] was 425 U/L and the Cholesterol [2] was 61 mg/dL. The Creatinine [2] was 1.3 mg/dL, the “Differential Count: Atyp lym” value [2] was 0% and the “Differential Count: Baso” value [2] was 1%. The “Differential Count: Eosin” value [2] was 4%, the “Differential Count: Lymph” value [2] was 62% and the “Differential Count: Mono” value [2] was 4%. The “Differential Count: Seg” value [2] was 29%, the “Gamma GT” value [2] was 64 U/L and the Glucose [2] was 79 mg/dL. The Hct [2] was 29.8%, the Hgb [2] was 10.0 g/dL and the “K+” value [2] was 4.7 mEq/l. It also gave an MCH [2] of 10.4 pg, an MCHC [2] of 33.6 g/dL and an MCV [2] of 30.8 fL. For the same molecule, the “Na+” value [2] was 148 mEq/l, the Phos [2] was 5.0 mg/dL and the “Platlet Count” value [2] was 1.018e+06 µL⁻¹. The RBC [2] was 9.7e+06 µL⁻¹, the “Total Bili” value [2] was 0.1 mg/dL and the “Total Prot” value [2] was 6.2 g/dL. For the same molecule, the WBC [2] was 5690 µL⁻¹, the ALT [3] was 8 U/L and the AST [3] was 62 U/L. For the same molecule, the Albumin [3] was 3.8 g/dL, the “Alk Phos” value [3] was 149 U/L and the BUN [3] was 14 mg/dL. It also gave a CPK [3] of 61 U/L, a Cholesterol [3] of 62 mg/dL and a Creatinine [3] of 1.1 mg/dL. For the same molecule, the “Differential Count: Atyp lym” value [3] was 1%, the “Differential Count: Baso” value [3] was 1% and the “Differential Count: Eosin” value [3] was 5%. The “Differential Count: Lymph” value [3] was 53%, the “Differential Count: Mono” value [3] was 3% and the “Differential Count: Seg” value [3] was 37%. For the same molecule, the “Gamma GT” value [3] was 55 U/L, the Glucose [3] was 82 mg/dL and the Hct [3] was 32.3%. For the same molecule, the Hgb [3] was 10.7 g/dL, the “K+” value [3] was 5.0 mEq/l and the MCH [3] was 10.5 pg. The MCHC [3] was 33.0 g/dL, the MCV [3] was 31.7 fL and the “Na+” value [3] was 147 mEq/l. The Phos [3] was 6.5 mg/dL, the “Platlet Count” value [3] was 891000 µL⁻¹ and the RBC [3] was 1.02e+07 µL⁻¹. For the same molecule, the “Total Bili” value [3] was 0.1 mg/dL, the “Total Prot” value [3] was 6.5 g/dL and the WBC [3] was 5130 µL⁻¹. For the same molecule, the “Differential Count: Atyp lym” value [4] was 0%, the “Differential Count: Bands” value [4] was 0% and the “Differential Count: Eosin” value [4] was 54%. For the same molecule, the “Differential Count: Lymph” value [4] was 35%, the “Differential Count: Mono” value [4] was 9% and the “Differential Count: Seg” value [4] was 51%. The Hct [4] was 38.5%, the Hgb [4] was 13.4 g/dL and the MCH [4] was 12.0 pg. The MCHC [4] was 34.7 G/dl, the MCV [4] was 34.5 fL and the “Platlet Count” value [4] was 562000 µL⁻¹. For the same molecule, the RBC [4] was 1.12e+07 µL⁻¹, the WBC [4] was 5320 µL⁻¹ and the ALT [5] was 8 U/L. For the same molecule, the AST [5] was 70 U/L, the Albumin [5] was 4.1 g/dL and the “Alk Phos” value [5] was 49 U/L. The BUN [5] was 17 mg/dL, the CPK [5] was 49 U/L and the Cholesterol [5] was 78 mg/dL. For the same molecule, the Creatinine [5] was 1.3 mg/dL, the “Differential Count: Atyp lym” value [5] was 0% and the “Differential Count: Bands” value [5] was 1%. The “Differential Count: Eosin” value [5] was 1%, the “Differential Count: Lymph” value [5] was 31% and the “Differential Count: Mono” value [5] was 6%. For the same molecule, the “Differential Count: Seg” value [5] was 61%, the “Gamma GT” value [5] was 51 U/L and the Glucose [5] was 104 mg/dL. For the same molecule, the Hct [5] was 36.1%, the Hgb [5] was 12.4 g/dL and the “K+” value [5] was 4.7 mEq/l. It also gave an MCH [5] of 11.4 pg, an MCHC [5] of 34.3 G/dl and an MCV [5] of 33.4 fL. For the same molecule, the “Na+” value [5] was 150 mEq/l, the Phos [5] was 5.9 mg/dL and the “Platlet Count” value [5] was 788000 µL⁻¹. The RBC [5] was 1.08e+07 µL⁻¹, the “Total Bili” value [5] was 0.1 mg/dL and the “Total Prot” value [5] was 7.4 g/dL. For the same molecule, the WBC [5] was 6600 µL⁻¹, the ALT [6] was 6 U/L and the AST [6] was 67 U/L. The Albumin [6] was 3.8 g/dL, the “Alk Phos” value [6] was 88 U/L and the BUN [6] was 15 mg/dL. For the same molecule, the CPK [6] was 77 U/L, the Cholesterol [6] was 74 mg/dL and the Creatinine [6] was 1.2 mg/dL. For the same molecule, the “Differential Count: Atyp lym” value [6] was 0%, the “Differential Count: Bands” value [6] was 0% and the “Differential Count: Eosin” value [6] was 10%. The “Differential Count: Lymph” value [6] was 39%, the “Differential Count: Mono” value [6] was 2% and the “Differential Count: Seg” value [6] was 49%. The “Gamma GT” value [6] was 54 U/L, the Glucose [6] was 73 mg/dL and the Hct [6] was 37.3%. For the same molecule, the Hgb [6] was 12.7 g/dL, the “K+” value [6] was 4.7 mEq/l and the MCH [6] was 11.2 pg. The MCHC [6] was 34.1 G/dl, the MCV [6] was 32.8 fL and the “Na+” value [6] was 149 mEq/l. For the same molecule, the Phos [6] was 6.6 mg/dL, the “Platlet Count” value [6] was 677000 µL⁻¹ and the RBC [6] was 1.14e+07 µL⁻¹. For the same molecule, the “Total Bili” value [6] was 0.1 mg/dL, the “Total Prot” value [6] was 6.8 g/dL and the WBC [6] was 4990 µL⁻¹. The ALT [7] was 9 U/L, the AST [7] was 61 U/L and the Albumin [7] was 4.1 g/dL. For the same molecule, the “Alk Phos” value [7] was 72 U/L and the BUN [7] was 16 mg/dL.
